Data from US20150056209A1, “PEPTIDE MIMOTOPES TO OXIDATION SPECIFIC EPITOPES” (The Regents of the University of California, priority 2012, published 2015).
Where no end group is shown, it is not given here.

Experiments:
LRO4 [1] = assay: Chemiluminescent ELISA, binding of LRO4 to plated or captured peptides; parameters: species or system murine; settings: peptides directly plated at increasing concentrations; LRO4 5 μg/mL
Procedure: Binding of mAb as well as plasma Abs to respective antigens was measured by chemiluminescent ELISA. Antigens were coated at 5 μg/mL in PBS/EDTA (pH 7.4). Synthetic peptides were directly coated at 10 μg/mL (P1) or 5 μg/mL (P2) in 0.1M NaHCO3 buffer (pH 8.6), unless indicated differently. Biotinylated peptides were immobilized at indicated concentrations in 0.1M NaHCO3 buffer (pH 8.6) on wells pre-coated with 10 μg/mL neutravidin (Pierce, Rockford, Ill., USA). Ab binding was measured using alkaline phosphatase (AP) labeled secondary Abs (described below) followed by chemiluminescent detection. For the detection of human autoAbs, a 1:400 plasma dilution was used. For human assays, internal controls consisting of high and low standard plasma samples were included on each microtiter plate to detect potential variations between microtiter plates. The intra-assay coefficients of variation for all assays were 10 to 14%.
The following secondary Abs were used: Alkaline Phosphatase (AP)-labeled goat anti-mouse IgM (μ-chain specific), IgG (γ-chain specific), IgG1 (Sigma-Aldrich) and IgG2c (Southern Biotech). For the detection of human autoAbs AP-labeled goat anti human IgG (γ-chain specific) and IgM (μ-chain specific) (Sigma-Aldrich) were used. Biotin-conjugated Abs were detected with AP-conjugated neutravidin (1:10,000; Pierce).

LRO4 [2] = assay: Competition immunoassays for LRO4 binding; parameters: species or system murine; settings: 0.5 μg/mL LRO4; 100 ng/mL captured P2; increasing concentrations of soluble competitor
Procedure: The specific binding of LRO4 to mimotopes was determined by competition immunoassays. Fifty μl of 0.5 μg/mL MAA-BSA or 100 ng/mL of biotinylated peptides were plated as described above. LRO4 antibody was incubated in TBS-1% BSA with or without increasing concentrations of competitors (BSA, MAA-BSA, P1, P2 and control peptide) for 30 minutes at RT. Binding of LRO4 was determined by chemiluminescent ELISA. The specificity of human plasma Ab binding to P1 was determined in a similar manner. In preliminary experiments, aliquots of pooled plasma samples (n=26) from a published cohort of healthy subjects were diluted in 1% BSA-TBS to yield a limiting plasma dilution. Diluted plasma (1:1,000) and increasing concentrations of competitors were incubated overnight at 4° C. Samples were then centrifuged at 15,800 g for 45 minutes at 4° C. to pellet immune complexes, and supernatants were analyzed for binding to plated P1 (10 μg/mL) by chemiluminescent ELISA.

LRO4 [3] = assay: Phage ELISA, binding of phage clones to coated LRO4; parameters: species or system murine; settings: 10^10 pfu/ml, OD 405-490 nm
Procedure: (§1) Phage ELISA was performed as described by NEB with minor modifications. Ninety six-well ELISA plates (Nunc Maxisorp) were coated with 5 μg/mL LRO4 mAb or control IgM mAb in NaHCO3 buffer (pH 8.6) at 50 μL/well ON at 4° C. Wells were washed with TBS containing 0.5% Tween 20 and then blocked with blocking buffer (TBS-T containing 1% BSA) at 200 μL/well for 1 hour at RT. After further washing, 10^10 pfu/ml of phage amplificates diluted in blocking buffer were added to the wells at 50 μL/well for 2 hours at RT. Wells were washed again, and an HRP-labeled anti-M13 mAb conjugate (no. 27-9421-01; GE Healthcare, Amersham, UK) diluted 1:1,000 in blocking buffer was added for 1 hour at RT followed by the addition of an 2,2′-azino-bis(3-ethylbenzothiazoline-6-sulphonic acid) (ABTS) (Sigma-Aldrich) substrate solution for 1 hour at RT. The binding reactivity of selected phage clones was measured at OD 405-490 nm using a BioTek Synergy 2 plate reader.

isotype control IgM = assay: Phage ELISA, binding of phage clones to isotype control IgM; settings: 10^10 pfu/ml, OD 405-490 nm
Procedure: Briefly, LRO4 or a control isotype anti-KLH IgM Ab (C48-6; BD Bioscience-Pharmingen, USA) were coated in buffer containing 0.1 M NaHCO3 (pH 8.5) on ELISA plates (Nunc Maxisorp, Roskilde, Denmark) overnight (ON) at 4° C. at a concentration of 100 μg/ml for the 1st, 50 μg/ml for the 2nd, and 10 μg/ml for the 3rd biopanning round. The next day, wells were washed with TBS containing 0.05% v/v Tween 20 (TBS-T) and incubated with blocking buffer containing 0.1M NaHCO3 (pH 8.6) and 5 mg/mL bovine serum albumin (BSA) for 1 hour at room temperature (RT). After further washing with TBS-T, 10 μL of a library solution (containing 2×10^12 phages) diluted in 100 μl of blocking buffer were first added to wells coated with control IgM (negative selection) and then unbound phages were transferred to wells coated with LRO4 (positive selection) and incubated at RT. The incubation time for negative or positive selection was reduced from 60 min for the 1st round to 30 min for the 2nd as well as 3rd biopanning round. Thereafter, plates were washed 5 times with TBS-T to remove unbound phages. To further elute nonspecifically bound phages, wells were incubated with 100 μL of 100 μg/ml of native LDL for 1 hour at RT. After washing up to 5 times with TBS-T, bound phages were eluted with 100 μL of elution buffer containing 0.2 M glycine-HCl (pH 2.2) and 1 mg/mL BSA. Eluates were transferred to microfuge tubes and neutralized with 15 μL of 1 M Tris-HCL (pH 9.1). The eluted phages were then titrated and amplified for the next round of panning. The 2nd and 3rd biopanning round was carried out using amplified eluates from the first and second round as input phages, respectively. To remove nonspecifically bound phages and to increase the affinity in the subsequent biopanning rounds, wells were washed 15 and 30 times with 0.1% TBS-T in the 2nd and 0.5% TBS-T in the 3rd rounds of biopanning, respectively. In the last biopanning round, LRO4-bound phages were competitively eluted with increasing concentrations (3-150 μg/mL) of MDA-LDL diluted in blocking buffer followed by elution using elution buffer.
as §1

LRO4 [4] = assay: Competitive phage ELISA, phage binding to LRO4 in presence of MDA-LDL; parameters: species or system murine; settings: in the presence of 50 μg/mL MDA-LDL
Procedure: For competitive phage ELISA, plates were coated with 5 μg/mL LRO4 and binding of 25 μL of phage solution at 2×10^10 pfu/mL was tested in the presence of 25 μL of MDA-LDL at 100 μg/mL. Bound phages were detected as described above and data expressed as values obtained in presence of competitor (B) divided by the values obtained in the absence of competitor (B0). A reciprocal competition assay was performed in which 50 μL of 5 μg/mL MDA-LDL was coated on microtiter wells, and binding of LRO4 that was preincubated for 30 min at RT with a solution containing either no or 1×10^10 pfu/mL phages with or without peptide was tested by chemiluminescent ELISA.
Table 2A-B. Binding characteristics of MDA-phagotopes. Sequences and binding characteristics of selected phagotopes from (A) the Ph.D.-12 and (B) the Ph.D.7C7 libraries, respectively. Individual phages were selected and amplified after the third round of biopanning, and binding to an isotype control IgM, LRO4, and LRO4 in the presence of 50 μg/mL MDA-LDL was measured by phage ELISA, as described in Methods. Numbers indicate OD values or for inhibition studies the fraction of OD values obtained in the absence and presence of soluble MDA-LDL (B/B0). Sequences indicate amino acid residues in peptide sequences that were deducted from the DNA sequence of each phagotope. “X” indicates an unidentified amino acid at this position. * for clones with identical sequence representative data of one clone are provided. (SEQ ID NOs:6-37)

[5] = Table 2A, Ph.D.-12 library clones
[6] = Table 2B, Ph.D.7C7 library clones

Substance	binding of LRO4 to plated peptides (LRO4 [1])	competition for LRO4 binding to captured biotinylated P2 (LRO4 [2])	Binding of phages to LR04 (LRO4 [3]; [5])	Binding of phages to control IgM (isotype control IgM; [5])	Inhibition of binding to LR04 (B/Bo) (LRO4 [4]; [5])	Binding of phages to LR04 (LRO4 [3]; [6])	Binding of phages to control IgM (isotype control IgM; [6])	Inhibition of binding to LR04 (B/Bo) (LRO4 [4]; [6])
ACSPNLNMNC (ACSPNLNMNCGGGS-NH2; cysteine pairing not given here) [scrambled peptide of P2, reference compound]	not recognized by LRO4	had no effect						
DWAPHFT [Cb2]						1.0 OD	0.2 OD	0.03
GWGNKTPSQDVH [A39]			1.19 OD	0.05 OD	0.19			
HRMTNAMHHFMG [A38]			0.64 OD	0.21 OD	0.10			
KNSXQPL [Ca4]						0.9 OD	0.1 OD	0.13
NNQNMPL [Cb9]						0.7 OD	0.01 OD	0.02
NNRNMPL [Ca59, Cb1]						0.8 OD	0.1 OD	0.06
NNSHMPL [Ca9, Cb3, Ca8, Ca10]						0.9 OD	0.2 OD	0.04
NNSKMRL [Ca2]						0.8 OD	0.2 OD	0.12
NNSNMPL [Cb10]						0.6 OD	0.2 OD	0.02
NNSXMPL [Ca6]						0.7 OD	0.0 OD	0.04
NNWKMPL [Cb4]						0.6 OD	0.1 OD	0.02
NNWNMPL [Ca1, Ca7]						0.8 OD	0.1 OD	0.04
NNYNMPL [Cb589]						0.8 OD	0.1 OD	0.03
NSWTNASLSTFH [A40]			0.89 OD	0.04 OD	0.10			
QNSHMPL [Ca3]						0.5 OD	0.1 OD	0.04

The next lines start with results.

binding of LRO4 to plated peptides (LRO4 [1])	competition for LRO4 binding to captured biotinylated P2 (LRO4 [2])	Binding of phages to LR04 (LRO4 [3]; [5])	Binding of phages to control IgM (isotype control IgM; [5])	Inhibition of binding to LR04 (B/Bo) (LRO4 [4]; [5])	Substance	Binding of phages to LR04 (LRO4 [3]; [6])	Binding of phages to control IgM (isotype control IgM; [6])	Inhibition of binding to LR04 (B/Bo) (LRO4 [4]; [6])
		1.37 OD	0.03 OD	0.10	ADPFSPTNRIPL [M7]			
		1.34 OD	0.04 OD	0.15	ASISNLTLSRFM [M15]			
		1.17 OD	0.03 OD	0.20	ESWNTNSWAMYFG [M2]			
		1.16 OD	0.03 OD	0.14	ESWTNSWAHYFG [A36, B41, M35]			
		1.04 OD	0.03 OD	0.06	EVMNNWTLASIM [M30]			
		0.63 OD	0.05 OD	0.14	HQLSNKDEQTPQ [A33]			
		1.45 OD	0.04 OD	0.10	HRISNYAMELHS [G4]			
		1.56 OD	0.03 OD	0.10	HRLTNSEQAALP [M3, M5]			
		1.56 OD	0.03 OD	0.20	HRMTNNAMDVFM [M6, G10]			
		1.16 OD	0.03 OD	0.10	HSLSNIQMATLA [M10, G8]			
		1.35 OD	0.03 OD	0.40	HSLTNTQMTQLS [M31]			
		0.98 OD	0.02 OD	0.18	HSWSNYWGHQHA [A32]			
		0.82 OD	0.11 OD	0.11	NSRTNNSQWTFQ [A34]			
		0.85 OD	0.08 OD	0.25	QNMNNWTLASIM [A31]			
		1.67 OD	0.03 OD	0.25	QSYTNDDVLRIS [M19]			
		1.57 OD	0.04 OD	0.20	TAVTNSMMERLW [M8]			
